Reference: patent publication US7910751B2, “Heterocyclidene acetamide derivative” (Mochida Pharmaceutical Co., Ltd., priority 2005, dated 2011)

Target: T1, human TRPV1 (Homo sapiens, UniProt Q8NER1)
T1 construct: expressed in transfected cells; host or cells: CHO-K1
Assay: Measurement of capsaicin-induced Ca influx in human TRPV1 transformed CHO cell line using FDSS-6000
Assay type: cell-based
Conditions: concentration at which the capsaicin concentration-reaction curve is shifted two times to the right, human TRPV1 transformed CHO cells
Source text: [Measurement of Capsaicin-Induced Ca Influx in Human TRPV1 Transformed CHO Cell Line]
(1) Establishment of Human TRPV1 Transformed CHO Cell Line
Human vanilloid receptor 1 (hTRPV1) cDNA was cloned from a human brain. The cloned hTRPV1 cDNA was incorporated in a pCAGGS vector. The gene of the vector was introduced to a CHO-K1 cell line, thus performing transformation. Clones obtained by limiting dilution were stimulated with capsaicin. Clones with a high responsiveness were selected using an increase in the Ca concentration as an indicator. The selected clones were used for the following experiment.
(2) Measurement of Ca Influx Using FDSS-6000
The human TRPV1 transformed CHO cells were seeded in a 96-well plate (with black walls and transparent bottoms, manufactured by Greiner) at a density of 40,000 cells per well. The cells were cultured at 37° C. in 5% CO2 for one night. A loading solution of FLIPR Calcium 3 assay kit (manufactured by Molecular Devices Corporation) containing 2.5 mmol/L of probenecid was then added to each of the wells in the same amount as the culture medium, and the cells were cultured at 37° C. for 60 minutes. After the cells were stimulated with capsaicin (1 nmol/L to 1 μmol/L), the change in the Ca concentration in the cells was measured using FDSS-6000 (λex: 480 nm, λem: 540 nm, manufactured by Hamamatsu Photonics K.K.) for three minutes. The integrated values of the increase rate of the Ca concentration in the cells were calculated for a group treated with the compounds of the present invention and a group treated with a medium, thus allowing capsaicin concentration-reaction curves to be obtained. A concentration (A2 value) of each of the compounds of the present invention, at which the capsaicin concentration-reaction curve obtained when the cells were treated with the medium was shifted two times to the right side, was calculated. The inhibiting effects of the test compounds were compared using this value as an indicator.
In the case where a compound of the present invention is an agonist, when the cells are treated with the compound of the present invention prior to the capsaicin stimulation, the Ca influx is observed. In Table 1, compounds of the present invention having an A2 value of less than 100 nM are represented by A, and compounds having an A2 value of 100 nM or more are represented by B. When the A2 values of the compounds of the present invention were measured by the above-described method, the compounds have an intensity of 1 μM or less.

T1 sequence (Q8NER1 whole entry): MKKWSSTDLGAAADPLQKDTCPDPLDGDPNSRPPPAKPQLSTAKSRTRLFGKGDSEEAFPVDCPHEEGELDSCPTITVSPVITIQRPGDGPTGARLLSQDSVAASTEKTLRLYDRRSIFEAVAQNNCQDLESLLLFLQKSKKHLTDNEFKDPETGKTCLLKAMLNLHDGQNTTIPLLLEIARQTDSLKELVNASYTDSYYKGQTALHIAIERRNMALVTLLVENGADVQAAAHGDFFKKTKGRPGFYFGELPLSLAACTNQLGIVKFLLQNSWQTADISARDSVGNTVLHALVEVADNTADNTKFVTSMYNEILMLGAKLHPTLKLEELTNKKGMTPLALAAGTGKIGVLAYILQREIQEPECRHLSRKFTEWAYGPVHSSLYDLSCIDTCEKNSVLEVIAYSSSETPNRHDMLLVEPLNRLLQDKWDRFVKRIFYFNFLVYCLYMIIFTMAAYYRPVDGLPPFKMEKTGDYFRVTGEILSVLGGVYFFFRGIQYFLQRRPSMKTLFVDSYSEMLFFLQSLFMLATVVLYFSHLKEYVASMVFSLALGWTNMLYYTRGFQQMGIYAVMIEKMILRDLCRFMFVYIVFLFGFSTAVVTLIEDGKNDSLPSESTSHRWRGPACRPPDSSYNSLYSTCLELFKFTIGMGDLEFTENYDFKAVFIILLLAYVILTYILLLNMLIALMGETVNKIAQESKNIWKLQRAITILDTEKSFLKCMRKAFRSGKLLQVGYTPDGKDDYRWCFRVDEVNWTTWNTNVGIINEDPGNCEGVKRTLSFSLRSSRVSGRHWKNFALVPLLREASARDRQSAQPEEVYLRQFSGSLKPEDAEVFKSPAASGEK

Compound	A2 VALUE
Cn1ccc2ccc(NC(=O)/C=C3\CCCOc4cc(C(F)(F)F)ccc43)cc21 [Example 152, (E)-2-(8-trifluoromethyl-3,4-dihydrobenzo[b]oxepin-5(2H)-ylidene)-N-(1-methylindol-6-yl)acetamide]	A (compounds of the present invention having an A2 value of less than 100 nM are represented by A)
CC(C)(C)c1ccc2c(c1)OCC/C2=C\C(=O)Nc1ccc2cccnc2c1 [Example 5, (E)-2-(7-tert-butyl-chroman-4-ylidene)-N-(quinolin-7-yl)acetamide]	A (compounds of the present invention having an A2 value of less than 100 nM are represented by A)
O=C(/C=C1\CCCOc2cc(C(F)(F)F)ccc21)Nc1cccc2cn[nH]c12 [Example 254, (E)-2-(8-trifluoromethyl-3,4-dihydrobenzo[b]oxepin-5(2H)-ylidene)-N-(1H-indazol-7-yl)acetamide]	A (compounds of the present invention having an A2 value of less than 100 nM are represented by A)
CC(NC(=O)/C=C1\CCCOc2cc(C(F)(F)F)ccc21)c1ccc2c(c1)OCCO2 (centres unmarked) [Example 33, (E)-2-(8-trifluoromethyl-3,4-dihydrobenzo[b]oxepin-5(2H)-ylidene)-N-(1-(2,3-dihydrobenzo[b][1,4]dioxin-6-yl)ethyl)acetamide]	B (compounds having an A2 value of 100 nM or more are represented by B)
O=C(/C=C1\CCCOc2cc(C(F)(F)F)ccc21)Nc1cccc2c1CC(O)CN2 (centres unmarked) [Example 218, (E)-2-(8-trifluoromethyl-3,4-dihydrobenzo[b]oxepin-5(2H)-ylidene)-N-(3-hydroxy-1,2,3,4-tetrahydroquinolin-5-yl)acetamide]	A (compounds of the present invention having an A2 value of less than 100 nM are represented by A)
O=C(/C=C1\CCCOc2cc(C(F)(F)F)ccc21)Nc1ccc2c(ccn2CCO)c1 [Example 164]	A (compounds of the present invention having an A2 value of less than 100 nM are represented by A)
Cc1sc2cnccc2c1NC(=O)/C=C1\CCCOc2cc(C(F)(F)F)ccc21 [Example 221, (E)-2-(8-trifluoromethyl-3,4-dihydrobenzo[b]oxepin-5(2H)-ylidene)-N-(2-methylthieno[2,3-c]pyridin-3-yl)acetamide]	A (compounds of the present invention having an A2 value of less than 100 nM are represented by A)
COc1cc(NC(=O)/C=C2\CCCOc3cc(C(F)(F)F)ccc32)cc(C(F)(F)F)c1 [Example 135, (E)-2-(8-trifluoromethyl-3,4-dihydrobenzo[b]oxepin-5(2H)-ylidene)-N-(3-methoxy-5-(trifluoromethyl)phenyl)acetamide]	A (compounds of the present invention having an A2 value of less than 100 nM are represented by A)
O=C1CCc2cccc(NC(=O)/C=C3\CCOc4cc(C(F)(F)F)ccc43)c2C1 [Example 119, (E)-N-(7-oxo-5,6,7,8-tetrahydronaphthalen-1-yl)-2-(7-trifluoromethyl-chroman-4-ylidene)acetamide]	A (compounds of the present invention having an A2 value of less than 100 nM are represented by A)
CC(=O)OC1CCc2c(NC(=O)/C=C3\CCCOc4cc(C(F)(F)F)ccc43)cccc21 (centres unmarked) [Example 161, (E)-2-(8-trifluoromethyl-3,4-dihydrobenzo[b]oxepin-5(2H)-ylidene)-N-(indan-1-acetoxy-4-yl)acetamide]	B (compounds having an A2 value of 100 nM or more are represented by B)
O=C(/C=C1/CCCOc2cc(C(F)(F)F)ccc21)Nc1ccc2cccnc2c1 [Example 247, (Z)-2-(8-trifluoromethyl-3,4-dihydrobenzo[b]oxepin-5(2H)-ylidene)-N-(quinolin-7-yl)acetamide]	A (compounds of the present invention having an A2 value of less than 100 nM are represented by A)
O=C(/C=C1\CCOc2cc(OC(F)(F)F)ccc21)Nc1cccc2c1CC(O)CC2 (centres unmarked) [Example 210, (E)-2-(7-trifluoromethoxy-chroman-4-ylidene)-N-(7-hydroxy-5,6,7,8-tetrahydronaphthalen-1-yl)acetamide]	A (compounds of the present invention having an A2 value of less than 100 nM are represented by A)
O=C(/C=C1\CC2(CCC2)Oc2cc(C(F)(F)F)ccc21)Nc1cccc2c1CC(O)CC2 (centres unmarked) [Example 251, (E)-2-(7-trifluoromethyl-2,2-cyclobutylchroman-4-ylidene)-N-(7-hydroxy-5,6,7,8-tetrahydronaphthalen-1-yl)acetamide]	A (compounds of the present invention having an A2 value of less than 100 nM are represented by A)
COc1ccc2cccc(NC(=O)/C=C3\CCCOc4cc(C(F)(F)F)ccc43)c2c1 [Example 129, (E)-2-(8-trifluoromethyl-3,4-dihydrobenzo[b]oxepin-5(2H)-ylidene)-N-(7-methoxynaphthalen-1-yl)acetamide]	B (compounds having an A2 value of 100 nM or more are represented by B)
CC(C)c1ccc2c(c1)OCC/C2=C\C(=O)Nc1cccc2c1CC(O)CN2 (centres unmarked) [Example 207, (E)-2-(7-isopropyl-chroman-4-ylidene)-N-(3-hydroxy-1,2,3,4-tetrahydroquinolin-5-yl)acetamide]	A (compounds of the present invention having an A2 value of less than 100 nM are represented by A)
O=C(/C=C1\CCCOc2cc(C(F)(F)F)ccc21)Nc1ccc2sc(CO)nc2c1 [Example 59, (E)-2-(8-trifluoromethyl-3,4-dihydrobenzo[b]oxepin-5(2H)-ylidene)-N-(2-hydroxymethyl-1,3-benzothiazolo-5-yl)acetamide]	A (compounds of the present invention having an A2 value of less than 100 nM are represented by A)
O=C(/C=C1\CCN(C(=O)C2CCCC2)c2cc(C(F)(F)F)ccc21)Nc1ccc2cccnc2c1 [Example 73, (E)-2-(1-cyclopentanecarbonyl-7-trifluoromethyl-2,3-dihydroquinolin-4(1H)-ylidene)-N-(quinolin-7-yl)acetamide]	A (compounds of the present invention having an A2 value of less than 100 nM are represented by A)
O=C(/C=C1\CCN(C(=O)C2CC2)c2cc(C(F)(F)F)ccc21)Nc1cccc2c1CC(O)CC2 (centres unmarked) [Example 105, (E)-2-(7-trifluoromethyl-2,3-dihydro-1-cyclopropanecarbonylquinolin-4(1H)-ylidene)-N-(7-hydroxy-5,6,7,8-tetrahydronaphthalen-1-yl)acetamide]	A (compounds of the present invention having an A2 value of less than 100 nM are represented by A)
CN1CCC/C(=C\C(=O)Nc2cccc3c2CC(O)CC3)c2ccc(C(F)(F)F)cc21 (centres unmarked) [Example 199, (E)-2-(1-methyl-8-trifluoromethyl-1,2,3,4-tetrahydro-5H-benzo[b]azepin-5-ylidene)-N-(7-hydroxy-5,6,7,8-tetrahydronaphthalen-1-yl)acetamide]	A (compounds of the present invention having an A2 value of less than 100 nM are represented by A)
O=C(/C=C1\CCOc2cc(C(F)(F)F)ccc21)Nc1ccc2sc(CO)nc2c1 [Example 216, (E)-2-(7-trifluoromethyl-chroman-4-ylidene)-N-(2-hydroxymethyl-1,3-benzothiazolo-5-yl)acetamide]	A (compounds of the present invention having an A2 value of less than 100 nM are represented by A)
O=C(/C=C1\CCN(C(=O)CC2CCCC2)c2cc(C(F)(F)F)ccc21)Nc1ccc2cccnc2c1 [Example 102, (E)-2-(7-trifluoromethyl-2,3-dihydro-1-(cyclopentylacetyl)quinolin-4(1H)-ylidene)-N-(quinolin-7-yl)acetamide]	A (compounds of the present invention having an A2 value of less than 100 nM are represented by A)
CN1CCC/C(=C\C(=O)Nc2cccc3ccc(O)cc23)c2ccc(C(F)(F)F)cc21 [Example 198, (E)-2-(1-methyl-8-trifluoromethyl-1,2,3,4-tetrahydro-5H-benzo[b]azepin-5-ylidene)-N-(7-hydroxynaphthalen-1-yl)acetamide]	A (compounds of the present invention having an A2 value of less than 100 nM are represented by A)
O=C(/C=C1\CCN(C(=O)C2(O)CC2)c2cc(C(F)(F)F)ccc21)Nc1cccc2c1CC(O)CC2 (centres unmarked) [Example 112, (E)-2-(1-(1-hydroxycyclopropanecarbonyl)-7-trifluoromethyl-2,3-dihydroquinolin-4(1H)-ylidene)-N-(7-hydroxy-5,6,7,8-tetrahydronaphthalen-1-yl)acetamide]	B (compounds having an A2 value of 100 nM or more are represented by B)
